The record followed here is ChEMBL document CHEMBL1909046, “DrugMatrix in vitro pharmacology data”.

The target in assay [1] is T1, Neuropeptide Y receptor type 2 (Homo sapiens, UniProt P49146). Note: in other assays of this panel Not Active means under 50% inhibition at 10 µM.
T1 sequence (P49146 whole entry): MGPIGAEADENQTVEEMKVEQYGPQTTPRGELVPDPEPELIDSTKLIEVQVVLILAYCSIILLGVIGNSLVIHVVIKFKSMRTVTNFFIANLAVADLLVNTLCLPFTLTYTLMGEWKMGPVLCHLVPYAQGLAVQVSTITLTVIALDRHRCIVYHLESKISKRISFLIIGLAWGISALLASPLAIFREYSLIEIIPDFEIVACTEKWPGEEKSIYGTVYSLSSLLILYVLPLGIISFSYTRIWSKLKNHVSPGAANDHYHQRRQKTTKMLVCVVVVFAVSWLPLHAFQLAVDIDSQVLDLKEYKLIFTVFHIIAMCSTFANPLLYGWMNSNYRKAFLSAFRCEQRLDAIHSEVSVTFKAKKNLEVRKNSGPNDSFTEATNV
The class given is cell membranes, Membrane. As to conditions: kan-ts.

The nature of assay [2]: DRUGMATRIX: Imidazoline I2, Central radioligand binding (ligand: [3H] Idazoxan). The following applies: Not Active = under 50% inhibition at 10 µM. The class given is cell membranes, Rattus norvegicus, Wistar, Cerebral cortex, Membrane.
Assay [3] has as its target 5-hydroxytryptamine receptor 4 (Cavia porcellus, UniProt O70528). The class given is cell membranes, Dunkin-Hartley, Striatum, Membrane. Note: in other assays of this panel Not Active means under 50% inhibition at 10 µM.
Assay [4] addresses T2, Alpha-2A adrenergic receptor (Homo sapiens, UniProt P08913).
T2 sequence (P08913 whole entry): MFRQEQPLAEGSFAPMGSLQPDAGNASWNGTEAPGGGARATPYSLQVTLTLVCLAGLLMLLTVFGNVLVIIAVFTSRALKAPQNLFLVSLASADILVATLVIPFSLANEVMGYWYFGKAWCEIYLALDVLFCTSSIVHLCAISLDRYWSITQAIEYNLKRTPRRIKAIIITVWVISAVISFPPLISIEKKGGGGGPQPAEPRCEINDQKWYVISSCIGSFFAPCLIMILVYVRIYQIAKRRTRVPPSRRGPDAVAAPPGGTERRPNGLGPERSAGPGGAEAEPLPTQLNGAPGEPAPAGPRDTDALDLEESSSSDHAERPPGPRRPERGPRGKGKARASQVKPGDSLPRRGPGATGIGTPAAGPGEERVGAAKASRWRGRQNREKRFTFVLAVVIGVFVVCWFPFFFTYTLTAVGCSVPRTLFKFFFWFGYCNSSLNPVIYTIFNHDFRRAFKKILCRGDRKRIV
The class given is cell membranes, Sf9, Membrane. The following applies: sf9.

A short description of assay [5]: DRUGMATRIX: Calcium Channel Type L, Phenylalkylamine radioligand binding (ligand: [3H] (-)-Desmethoxyverapamil (D-888)). The class given is cell membranes, Rattus norvegicus, Wistar, Brain, Membrane. The following applies: Not Active = under 50% inhibition at 10 µM.

pIC50, pKi: −log10 of the molar value.

Chain of 5-hydroxytryptamine receptor 4 (O70528 whole entry): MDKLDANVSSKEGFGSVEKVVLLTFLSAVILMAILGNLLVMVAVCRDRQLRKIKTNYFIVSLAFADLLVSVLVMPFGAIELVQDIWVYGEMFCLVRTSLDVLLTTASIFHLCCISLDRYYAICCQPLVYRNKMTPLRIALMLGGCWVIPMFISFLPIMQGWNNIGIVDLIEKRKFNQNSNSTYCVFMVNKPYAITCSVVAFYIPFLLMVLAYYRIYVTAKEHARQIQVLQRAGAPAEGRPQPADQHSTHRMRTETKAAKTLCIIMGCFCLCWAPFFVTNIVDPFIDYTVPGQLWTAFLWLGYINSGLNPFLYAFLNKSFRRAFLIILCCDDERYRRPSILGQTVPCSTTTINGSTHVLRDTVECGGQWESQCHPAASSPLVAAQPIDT

As for `Cc1cc(C2CCCCC2)n(O)c(=O)c1` [CICLOPIROX], the IC50 result in assay [1], in assay [2], in assay [3], in assay [4] and in assay [5] was “Not Active” each time. For the same compound, the Ki entry in assay [2] and in assay [5] was “Not Active” throughout.

As for `CCCCN1CCCC[C@H]1C(=O)Nc1c(C)cccc1C` [LEVOBUPIVACAINE], the IC50 result in assay [1], in assay [2], in assay [3], in assay [4] and in assay [5] was “Not Active” throughout. For the same compound, the Ki entry in assay [2] and in assay [5] was “Not Active” in each case.

On to `CC[C@@]1(O)C[C@H](O[C@H]2C[C@H](N(C)C)[C@H](O[C@H]3C[C@H](O)[C@H](O[C@H]4CCC(=O)[C@H](C)O4)[C@H](C)O3)[C@H](C)O2)c2c(cc3c(c2O)C(=O)c2c(O)cccc2C3=O)[C@H]1C(=O)OC` [ACLARUBICIN], for which the IC50 entry in assay [1], in assay [2], in assay [3], in assay [4] and in assay [5] was “Not Active” each time. Also, the Ki result in assay [2] and in assay [5] was “Not Active” in each case.

As to `CC(=O)O[C@@]12CO[C@@H]1C[C@H](O)[C@@]1(C)C(=O)[C@H](O)C3=C(C)[C@@H](OC(=O)[C@H](O)[C@@H](NC(=O)OC(C)(C)C)c4ccccc4)C[C@@](O)([C@@H](OC(=O)c4ccccc4)[C@H]21)C3(C)C.O.O.O` [DOCETAXEL], the IC50 result in assay [1], in assay [2], in assay [3], in assay [4] and in assay [5] was “Not Active” each time. Also, the Ki result in assay [2] and in assay [5] was “Not Active” each time.

As for `N=C(N)NCCN1CCCCCCC1` [GUANETHIDINE], the IC50 entry in assay [1], in assay [2], in assay [3], in assay [4] and in assay [5] was “Not Active” in each case. Also, the Ki entry in assay [2] and in assay [5] was “Not Active” in each case.

As to `CNCCc1ccccn1` [BETAHISTINE], the IC50 entry in assay [1], in assay [2], in assay [3], in assay [4] and in assay [5] was “Not Active” each time. Moreover, the Ki entry in assay [2] and in assay [5] was “Not Active” each time.

What is called pIC50 is −log10 of the IC50, conventionally taken in molar units. As usually defined, the pKi is −log10 of the Ki, conventionally taken in molar units. Take `COc1cc2nc(N3CCN(C(=O)C4COc5ccccc5O4)CC3)nc(N)c2cc1OC` (stereo not drawn) [DOXAZOSIN]: the IC50 result in assay [1], in assay [2], in assay [4] and in assay [5] was “Not Active” throughout. For the same compound, the Ki entry in assay [2] and in assay [5] was “Not Active” throughout. For the same compound, the pIC50 in assay [3] (read-out: IC50) was 6.12. Moreover, the pKi in assay [3] (read-out: Ki) was 6.90.

On to `C[C@H](CS)C(=O)N1CCC[C@H]1C(=O)O` [CAPTOPRIL], for which the IC50 entry in assay [1], in assay [2], in assay [3], in assay [4] and in assay [5] was “Not Active” throughout. In addition, the Ki result in assay [2] and in assay [5] was “Not Active” each time.

As to `CC(C)(Oc1ccc(Cl)cc1)C(=O)O` [CLOFIBRIC ACID], the IC50 result in assay [1], in assay [2], in assay [3], in assay [4] and in assay [5] was “Not Active” each time. Moreover, the Ki result in assay [2] and in assay [5] was “Not Active” each time.

Consider `OC(Cn1cncn1)(Cn1cncn1)c1ccc(F)cc1F` [FLUCONAZOLE], for which the IC50 result in assay [1], in assay [2], in assay [3], in assay [4] and in assay [5] was “Not Active” throughout. In addition, the Ki result in assay [2] and in assay [5] was “Not Active” in each case.

As to `O=C1CC[C@@H](N2C(=O)c3ccccc3C2=O)C(=O)N1`, the IC50 entry in assay [1], in assay [2], in assay [3], in assay [4] and in assay [5] was “Not Active” throughout. For the same compound, the Ki result in assay [2] and in assay [5] was “Not Active” each time.
